This note sets out measurements from patent US20250205152A1, “METHOD OF PREVENTING AGE-RELATED MACULAR DEGENERATION BY ADMINISTERING AN OCULAR DRUG DELIVERY INSERT” (EYEPOINT PHARMACEUTICALS, INC., priority 2022, published 2025).

Data set [1] can be described thus: Solubility of vorolanib in water. Type of data set: physicochemical. The protocol: Vorolanib has the chemical designation (S,Z)—N-(1-(Dimethylcarbamoyl) pyrrolidin-3-yl)-5-((5-fluoro-2-oxoindolin-3-ylidene)methyl)-2,4-dimethyl-1H-pyrrole-3-carboxamide. Synonyms include the term “X-82”. The molecular formula is C23H26FN5O3. The solubility of vorolanib in water is less than 10 μg/mL.

The subject of data set [2] is sodium Hyaluronate-induced retinal detachment. As to the kind of experiment: Sodium hyaluronate-induced retinal detachment model: OKT and OCT. It is filed as in vivo, C57Bl/6 mice. The method, then:
(§1) An 18-day study was conducted in age-matched and experimentally naive C57Bl/6 mice. Prior to experiments, the mice were randomly distributed into two separate study arms, and identification numbers were assigned to individual mice. Prior to dosing initiation, baseline experiments were conducted to measure visual acuity and contrast vision by optokinetic tracking (OKT), and to measure retinal and outer nuclear layer (ONL) thickness in images obtained by optical coherence tomography (OCT). On Day 1, and continuing until Day 18, the mice received once a day oral administration of vehicle (Arm 1), or Vorolanib at 40 mg/kg (Arm 2). On Day 2, bilateral subretinal injection of sodium hyaluronate was performed to induce retinal detachment. On Day 16, visual acuity and contrast vision thresholds were measured, and on Day 17, OCT was performed to measure retinal and ONL thickness. On Day 18, terminal collections were performed at either 30 minutes, or 4 hours, post-administration, with whole blood collected and processed to plasma, left eyes collected and fixed for histology, and right eyes collected and dissected to yield cornea, lens, retinal pigment epithelium (RPE)/choroid/sclera, and retina, separately.
Mouse eyes were dilated and the animals were anesthetized according to standard operating procedures. The mouse was placed on a regulated heating pad, and the posterior pole was visualized under magnification. A 12.7 mm 30-gauge insulin syringe was used to puncture the cornea just above the corneal limbus, avoiding any contact with the sclera and lens. The transvitreal subretinal injections were performed using a 10 μL Hamilton syringe with a 33-gauge blunt needle inserted through the corneal puncture across the vitreous, with the shaft aimed at the back of the eyecup, avoiding any trauma to the lens or iris. A total volume of 1 μL was delivered.
OKT is performed using an OptoMotry designed for rodent use (Cerebral Mechanics Inc.). In this non-invasive assessment, mice are placed onto a platform surrounded by 4 LCD screens which reside within a light-protected box. Visual stimuli are then presented to the mouse via the LCD screens and a masked observer visualizes and scores optokinetic tracking reflexes from a digital camcorder which is mounted on the top of the box. The monitors display continuous vertical sine wave gratings rotating across the monitors at 12 degrees/s which appear to the animal as a virtual three-dimensional rotating […]. The rotation of the virtual cylinder is constantly centered at the animal's viewing position to ensure a consistent viewing distance. Tracking movements are identified as slow, steady head movements in the direction of the rotating grating. For measurements of spatial frequency threshold, mice were tested at a range of spatial frequencies from 0.064 to 0.464 cycles/degree. […] All measurements of contrast threshold were performed at a spatial frequency threshold of 0.064 cycles/degree. The contrast threshold is calculated as a reciprocal of the Michelson contrast from the screen's luminance (maximum−minimum)/(maximum+minimum). The reciprocal of the contrast threshold is plotted.
Animals were anesthetized and eyes were dilated according to standard procedures. Following sedation and dilation, animals were secured on a platform and presented to a Micron
IV OCT module (Phoenix Research Inc.) for imaging. The total retina thickness and outer nuclear layer thickness were measured from vertical and horizontal scans within each eye, and the data was plotted as the average retinal thickness across the scans.
Graphs were generated using GraphPad Prism (v. 9.4.0). […]

Data set [3] in a line: Plasma and ocular tissue levels after oral vorolanib in the retinal detachment study. It is filed as in vivo, C57Bl/6 mice. The note with it: 40 mg/kg oral once a day. The protocol: as §1
Day 18 at 30 min±5 min following oral administration of vehicle or test agent: Terminal plasma collection; Enucleation of eyes with left eyes fixed in 10% NBF and right eyes dissected to yield cornea, lens, RPE/choroid/sclera, and retina, with tissue snap frozen in liquid N2 with tube and tissue weights recorded (n=4 mice/arm).
Day 18 at 4 hr±15 min following oral administration of vehicle or test agent: Terminal plasma collection; Enucleation of eyes with left eyes fixed in 10% NBF and right eyes dissected to yield cornea, lens, RPE/choroid/sclera, and retina, with tissue snap frozen in liquid N2 with tube and tissue weights recorded (n=4 mice/arm).
Oral gavage was performed on conscious mice by trained personnel; no anesthesia was required. […]

In data set [4] the test system is Swine (Mini-pig) Model of Laser-Induced Choroidal Neovascularization (CNV). As to the kind of experiment: Laser-induced choroidal neovascularization model, fluorescein angiography (CTLF). It is filed as in vivo. The note with it: Day 0. The method, then: Safety and efficacy of a vorolanib insert were evaluated in a Swine (Mini-pig) Model of Laser-Induced Choroidal Neovascularization (CNV). The primary objective of this study was to evaluate the long-term safety and inhibition of vascular permeability and neovascularization in a laser-induced model of choroidal neovascularization (CNV) using a vorolanib insert in swine.
On the day of lasering (Groups 1-4) animals were treated with an 810 nm diode laser delivered through an indirect ophthalmoscope. Approximately 6 single laser spots were placed between retinal veins. Both eyes underwent laser treatment according to the schedule in the table above.
On the day of intravitreal injections animals were anesthetized and the eyes were aseptically prepared. […] Animals were allowed to recover normally from the procedure. The pigs were given a topical drop of antibiotic ophthalmic solution 4-6 hours later, and then BID for 2 additional days with at least 6 hours between doses. Animals were dosed on either Day 0 immediately following laser CNV induction or 7 days prior to laser CNV induction according to the schedule in the table above.
Flourescein Angiography was done in both eyes in anesthetized animals at the timepoints as indicated in the experimental design table.

The mark [5] stands for this setting: 40 mg/kg oral once a day, baseline to Day 17, OCT.

Entries after “also recorded” stand apart in the source; their conditions may differ.

The term solubility denotes the concentration that dissolves in the medium under given conditions. A lower solubility goes with little dissolved substance. Take `Cc1[nH]c(/C=C2\C(=O)Nc3ccc(F)cc32)c(C)c1C(=O)N[C@H]1CCN(C(=O)N(C)C)C1` [vorolanib, (S,Z)—N-(1-(Dimethylcarbamoyl)pyrrolidin-3-yl)-5-((5-fluoro-2-oxoindolin-3-ylidene)methyl)-2,4-dimethyl-1H-pyrrole-3-carboxamide]: the solubility in data set [1] is < 10 µg/mL. The “overall effect in retinal detachment model” value in data set [2] (40 mg/kg once a day for 18 consecutive days, compared to vehicle) is “significant neuroprotective effect”. In data set [2] (40 mg/kg oral once a day, Day 16), the “mean spatial frequency threshold (SFT)” value was found to be 0.306 cycles/degree. Besides, the “contrast thresholds compared to vehicle” value in data set [2] (40 mg/kg oral once a day, Day 16, P=0.0009) is “significantly higher; also recorded: statistically significant improvement”. In data set [2] (40 mg/kg oral once a day, OKT), the “loss of contrast vision, baseline to Day 16” value stood at 41% and the “loss of visual acuity, baseline to Day 16” value turned out to be 23%. Moreover, in data set [2] (setting [5]), the “loss of ONL thickness in horizontal scans” value was “no loss” and the “loss of ONL thickness in vertical scans” value is 1%. Besides, the “total retinal thickness across the treatment arms” value in data set [2] (40 mg/kg oral vs vehicle, OCT) was “no statistically significant differences”. Besides, the “difference in mean SFT versus vehicle” value in data set [2] (Day 16) was “not statistically significant”. The “mean retinal thickness across vertical and horizontal scans” value in data set [2] (across both arms and timepoints) is recorded as 222-229 μm. Besides, the presence in plasma result in data set [3] (18 consecutive days) is reported as “present in the plasma up to 4 hours”. Also, in data set [3] (18 days), the tissue distribution entry is given as “primarily in RPE/Choroid/Sclera tissue at levels that exceed plasma concentrations”. In data set [3] (up to 4 hours following the terminal dose), the “detection in ocular tissues” value is reported as “within detectable range in all ocular tissues tested, except lens tissue”.
For the molecule “aflibercept: VEGF inhibitor (Regeneron), intravitreal injection, positive control”, the “efficacy in laser CNV model” value in data set [4] (2 mg IVT) was “normal amounts of efficacy”. Moreover, in data set [4] (Group 1: 2 mg, 50 μL/eye IVT), the “Corrected Total Lesion Fluorescence (CTLF) value, change from Day 7 to Day 28” value is reported as “largest reduction”.
